Experimental data from patent US20060122153A1, “Antineoplastic ether lipid compounds with modifications at the sn-2 carbon” (priority 2003, published 2006).
Read-outs that look alike come from different tables or passages of the source.

Tests used:
NCI-H226 = assay: NCI growth inhibition screen, non-small cell lung panel; type: cell-based, human; set-up: key to Performance as compared to ET-18-O—CH3: = means equivalent activity; + means that it appears to be significantly better (i.e., by ˜2x); < means it appears to be less active than ET18OCH3 (˜2x); a combination like =/+ or </+ means that activity is dependent upon the isomer; a combination like =/+ or </+ means that activity is dependent upon the isomer; conditions: for Performance as compared to ET-18-O—CH3: NCI-H226, NS cell lung, from GI50s; for activity compared to ET-18-OCH3 (in words): NCI-H226 cell line, NCI screen
Protocol: (§1) Candidates deemed suitable for in vivo testing were then synthesized in large scale quantities and some of this material was sent to the NCI's Developmental Therapeutics Program for a battery of growth inhibitory studies against various human tumor cell lines (60 cell lines, 9 different panels). The remainder of the material was used to assess in vivo efficacy using murine tumor models. Additionally, studies were conducted on the lead candidates to discern mechanism of action with particular emphasis on these agents apoptotic ability as measured by caspase 3 activity. The details (materials and methods) for these various assays are described further in the following discussion.
(§2) Ten compounds were also sent to NCI's Drug Discovery Program for screening against numerous human tumor cell lines (9 panels total: renal ovarian, colon, CNS, non-small cell lung, leukemia, breast, melanoma, and prostate). The data are shown in FIGS. 2a-i which also include data regarding D- and L-ET-18-OCH3 (listed as L-EL and D-EL in the figures). Upon examining the data, one is struck by how 1R and 1a′S standout in comparison to the other compounds, especially for the renal, ovarian, colon, and CNS panels.

HT29 = assay: NCI growth inhibition screen, colon panel; type: cell-based, human; set-up: key: = means equivalent activity; + means that it appears to be significantly better (i.e., by ˜2x); < means it appears to be less active than ET18OCH3 (˜2x); a combination like =/+ or </+ means that activity is dependent upon the isomer; a combination like =/+ or </+ means that activity is dependent upon the isomer; conditions: from GI50s
Protocol: as §1, §2

SW-620 = assay: NCI growth inhibition screen, colon panel; type: cell-based, human; set-up: key: = means equivalent activity; + means that it appears to be significantly better (i.e., by ˜2x); < means it appears to be less active than ET18OCH3 (˜2x); a combination like =/+ or </+ means that activity is dependent upon the isomer; a combination like =/+ or </+ means that activity is dependent upon the isomer; conditions: SW-620, Colon; from GI50s
Protocol: as §1, §2

KM12 = assay: NCI growth inhibition screen, colon panel; type: cell-based, human; set-up: key: = means equivalent activity; + means that it appears to be significantly better (i.e., by ˜2x); < means it appears to be less active than ET18OCH3 (˜2x); a combination like =/+ or </+ means that activity is dependent upon the isomer; a combination like =/+ or </+ means that activity is dependent upon the isomer; conditions: from GI50s
Protocol: as §1, §2

HCT-116 = assay: NCI growth inhibition screen, colon panel; type: cell-based, human; set-up: key: = means equivalent activity; + means that it appears to be significantly better (i.e., by ˜2x); < means it appears to be less active than ET18OCH3 (˜2x); a combination like =/+ or </+ means that activity is dependent upon the isomer; a combination like =/+ or </+ means that activity is dependent upon the isomer; conditions: HCT-116, Colon; from GI50s
Protocol: as §1, §2

[1] = test system: platelets in dog whole blood; assay: Platelet aggregation in whole blood (Chronolog whole blood aggregometer)
Protocol: (§3) Briefly, whole citrated blood is diluted 1:2 with sterile saline and placed in a warm chamber with a mini stir bar. An electronic probe, measuring electrical resistance, is inserted in the sample. The aggregometer is calibrated and the baseline is observed to detect any spontaneous aggregation. The test sample is added and allowed to run for at least 6 minutes. If the sample is an agonist the platelets will start to aggregate and stick to the electronic probe causing resistance across the electrodes to increase. This resistance, in ohms, is measured 6 minutes post addition of sample. The test samples are run at 25, 100, 200, 400 and 800 uM and compared to 100 uM L-ET-18-OCH3.
(§4) Collection of Blood Sample for in vitro Platelet Aggregation Testing: Venous blood is collected in 4.5 mL Vacutainer tubes containing 0.129 M sodium citrate using a 21G needle or larger. Blood is immediately mixed by gentle inversion 15-20 times and kept at room temperature. Dilution ratio is 1 to 9 (3.8% citrate solution:blood). One (2.0 mL) Vacutainer tube containing EDTA is also collected for platelet counts. Complete blood counts (CBC) are measured on the CDC Technologies Hemavet 1500 to ensure that the test subject's platelets are within normal range. Amy vials of hemolytic blood or blood containing any clots should be discarded. Platelet aggregation testing must be completed within 3 hours of blood collection. After this time the ability of platelets to aggregate decreases.
(§5) Dilutions were prepared in PBS or saline at 40× concentration. (25 uL test sample are added to 1000 uL diluted blood (1:40)).

[2] = test system: platelets in dog whole blood
Protocol: as §3, §4, §5

Compound: CCCCCCCCCCCCCCCCCCOC[C@@H](COP(=O)([O-])OCC[N+](C)(C)C)OS(C)(=O)=O [1a′S]
- Performance as compared to ET-18-O—CH3 (NCI-H226): 32
- activity compared to ET-18-OCH3 (in words) (NCI-H226): significantly better than ET-18-OCH3
- Performance as compared to ET-18-O—CH3 (HT29): 0
- Performance as compared to ET-18-O—CH3 (SW-620): 1024
- Performance as compared to ET-18-O—CH3 (KM12): 0
- Performance as compared to ET-18-O—CH3 (HCT-116): 256
- Relative Platelet Aggregation (Ohms) ([1]; 25 μM): 0 Ohms
- Relative Platelet Aggregation (Ohms) ([1]; 100 μM): 0 Ohms
- Relative Platelet Aggregation (Ohms) ([1]; 200 μM): 0 Ohms
- Relative Platelet Aggregation (Ohms) ([1]; 400 μM): 0 Ohms
- Relative Platelet Aggregation (Ohms) ([1]; 800 μM): 0 Ohms

Compound: CCCCCCCCCCCCCCCCCCOCC(COP(=O)([O-])OCC[N+](C)(C)C)OS(C)(=O)=O (stereo not shown) [Compound 1aR]
- Performance as compared to ET-18-O—CH3 (NCI-H226): +
- activity compared to ET-18-OCH3 (in words) (NCI-H226): significantly better than ET-18-OCH3
- Performance as compared to ET-18-O—CH3 (HT29): =
- Performance as compared to ET-18-O—CH3 (SW-620): +
- Performance as compared to ET-18-O—CH3 (KM12): =
- Performance as compared to ET-18-O—CH3 (HCT-116): +
- platelet aggregation response (in words) [1]: none of the “L” isomer compounds (1cR or 1aR) evoked an aggregatory response
- Relative Platelet Aggregation (Ohms) ([1]; 25 μM): 0 Ohms
- Relative Platelet Aggregation (Ohms) ([1]; 100 μM): 0 Ohms
- Relative Platelet Aggregation (Ohms) ([1]; 200 μM): 0 Ohms
- Relative Platelet Aggregation (Ohms) ([1]; 400 μM): 0 Ohms
- Relative Platelet Aggregation (Ohms) ([1]; 800 μM): 0 Ohms

Compound: CCCCCCCCCCCCCCCCCCOCC(COP(=O)([O-])OCC[N+](C)(C)C)OC [D-ET18OCH3, 1-O-octadecyl-2-O-methyl-glycerophosphocholine, reference compound]
- Platelet aggregation [2]: −
- platelet aggregation response (in words) [2]: doesn't elicit an aggregation response
